The values below come from ChEMBL document CHEMBL1150570, “Five novel neuroprotective triterpene esters of Ulmus davidiana var. japonica” (2001).

Each structure is given as a SMILES string.

This experiment is described as follows: Neuroprotective activity against glutamate-induced toxicity in Sprague-Dawley rat cortical cells assessed as cell viability at 5 uM pretreated 1 hr before glutamate challenge by LDH release assay. It is filed as functional. The note with it: read-out: Activity.
As to `C=C(C)[C@@H]1CC[C@]2(C)C[C@H](O)[C@]3(C)[C@H](C[C@@H](OC(=O)c4ccc(O)c(OC)c4)[C@@H]4[C@@]5(C)CC[C@H](O)C(C)(C)[C@@H]5CC[C@]43C)[C@@H]12` [ULMICIN A], the viability at 5 µM came to 48%.

Consider `C=C(C)[C@@H]1CC[C@]2(C)C[C@H](OC(=O)c3ccccc3)[C@]3(C)[C@H](C[C@@H](OC(=O)c4ccc(O)c(OC)c4)[C@@H]4[C@@]5(C)CC[C@H](O)C(C)(C)[C@@H]5CC[C@]43C)[C@@H]12` [ULMICIN E], for which the viability at 5 µM came out at 41%. Under `C=C(C)[C@@H]1CC[C@]2(C)C[C@H](O)[C@]3(C)[C@H](C[C@@H](OC(=O)c4ccc(O)cc4)[C@@H]4[C@@]5(C)CC[C@H](O)C(C)(C)[C@@H]5CC[C@]43C)[C@@H]12` [ULMICIN B] stands 51.2%.

With `C=C(C)[C@@H]1CC[C@]2(C)C[C@H](OC(=O)c3ccc(O)c(OC)c3)[C@]3(C)[C@H](C[C@@H](OC(=O)c4ccc(O)c(OC)c4)[C@@H]4[C@@]5(C)CC[C@H](O)C(C)(C)[C@@H]5CC[C@]43C)[C@@H]12` [ULMICIN D], the viability at 5 µM was found to be 44.2%.

Take `C=C(C)[C@@H]1CC[C@]2(C)C[C@H](OC(=O)c3ccc(O)cc3)[C@]3(C)[C@H](C[C@@H](OC(=O)c4ccc(O)c(OC)c4)[C@@H]4[C@@]5(C)CC[C@H](O)C(C)(C)[C@@H]5CC[C@]43C)[C@@H]12` [ULMICIN C]: the viability at 5 µM was 49.2%.
